Laboratory results published in ChEMBL document CHEMBL1125506, “Fluoronaphthyridines as antibacterial agents. 6. Synthesis and structure-activity relationships of new chiral 7-(1-, 3-, 4-, and 6-methyl-2,5-diazabicyclo[2.2.1]heptan-2-yl)naphthyridine analogues of 7-[(1R,4R)-2,5- diazabicyclo[2.2.1]heptan-2-yl]-1-(1,1-dimethylethyl)-6-fluoro-1,4-dihy …” (J Med Chem, 1992).
Converted amounts (≈) assume the structure as drawn.

Experiments:
[1] = tested on: Morganella morganii; experiment: In vitro antibacterial activity against Morganella morganii A15153; type: functional
[2] = tested on: Mus musculus; experiment: In vivo efficacy on systemic infections caused by Pseudomonas aeruginosa A9843 in mice after intramuscular administration; type: functional; settings: im, read-out: PD50
[3] = tested on: Proteus mirabilis; experiment: In vitro antibacterial activity against Proteus mirabilis A9900; type: functional
[4] = percent urinary recovery in 24 hr after intravenous administration to mice; type: ADME, organism-based; settings: mouse, urine, read-out: UR
[5] = Peak concentration in blood after intravenous administration to mice; type: ADME, organism-based; set-up: route intravenous; settings: mouse
[6] = Plasma half-life after peroral administration to mice; type: ADME, organism-based; settings: mouse, po
[7] = tested on: Enterococcus faecalis; experiment: In vitro antibacterial activity against Enterococcus faecalis A9809; type: functional
[8] = tested on: Enterobacter cloacae; experiment: In vitro antibacterial activity against Enterobacter cloacae A9656; type: functional
[9] = tested on: Mus musculus; experiment: In vivo efficacy on systemic infections caused by Staphylococcus aureus A15090 in mice after peroral administration; type: functional; settings: po, read-out: PD50
[10] = tested on: Klebsiella pneumoniae; experiment: In vitro antibacterial activity against Klebsiella pneumoniae A9664; type: functional
[11] = Solubility (water, 22C, pH 7.2); type: physicochemical; settings: read-out: S
[12] = tested on: Mus musculus; experiment: Area under curve measured as conc vs time after peroral administration to mice.; type: ADME, organism-based; set-up: unit not given here; settings: in vivo, po
[13] = tested on: Staphylococcus aureus; experiment: In vitro antibacterial activity against Staphylococcus aureus A9537; type: functional
[14] = Plasma half-life after intravenous administration to mice; type: ADME, organism-based; settings: mouse
[15] = tested on: Mus musculus; experiment: In vivo efficacy on systemic infections caused by Pseudomonas aeruginosa A9843 in mice after peroral administration; type: functional; settings: po, read-out: PD50
[16] = Peak concentration in blood after peroral administration to mice; type: ADME, organism-based; set-up: route oral; settings: mouse, po
[17] = tested on: Bacteroides fragilis; experiment: In vitro antibacterial activity against Bacteroides fragilis A-22,862; type: functional
[18] = Percent urinary recovery in 24 hr after peroral administration to mice; type: ADME, organism-based; settings: mouse, urine, po; read-out: UR
[19] = Partition coefficient (logD); type: physicochemical; settings: octanol/water
[20] = tested on: Pseudomonas aeruginosa; experiment: In vitro antibacterial activity against Pseudomonas aeruginosa A9843; type: functional
[21] = tested on: Streptococcus pneumoniae; experiment: In vitro antibacterial activity against Streptococcus pneumoniae A9585.; type: functional
[22] = tested on: Serratia marcescens; experiment: In vitro antibacterial activity against Serratia marcescens A20019; type: functional
[23] = tested on: Mus musculus; experiment: Area under curve measured as conc vs time after intravenous administration to mice.; type: ADME, organism-based; set-up: unit not given here; settings: in vivo
[24] = tested on: Escherichia coli; experiment: In vitro antibacterial activity against Escherichia coli A15119; type: functional
[25] = tested on: Mus musculus; experiment: In vivo efficacy on systemic infections caused by Staphylococcus aureus A15090 in mice after intramuscular administration; type: functional; settings: im, read-out: PD50
[26] = Acute toxicity after intravenous administration to mice; type: organism-based; settings: mouse, in vivo
[27] = tested on: Mus musculus; experiment: In vivo efficacy on systemic infections caused by Streptococcus pneumoniae A9585 in mice after intramuscular administration; type: functional; settings: im, read-out: PD50
[28] = tested on: Mus musculus; experiment: In vivo efficacy on systemic infections caused by Streptococcus pneumoniae A9585 in mice after peroral administration; type: functional; settings: po, read-out: PD50
[29] = Acute toxicity after peroral administration to mice; type: organism-based; settings: mouse, in vivo, po
[30] = tested on: Mus musculus; experiment: In vivo efficacy on systemic infections caused by Escherichia coli A15119 in mice after intramuscular administration; type: functional; settings: im, read-out: PD50
[31] = tested on: Mus musculus; experiment: In vivo efficacy on systemic infections caused by Escherichia coli A15119 in mice after peroral administration; type: functional; settings: po, read-out: PD50

Structure (SMILES) | MIC [1] [µg/mL] | ED50 [2] [mg/kg] | MIC [3] [µg/mL] | dose excreted at 24 h [4] [%] | Cmax [5] [ng/mL] | half-life [6] [h] | MIC [7] [µg/mL] | MIC [8] [µg/mL] | ED50 [9] [mg/kg] | MIC [10] [µg/mL] | solubility [11] [µg/mL] | MIC [13] [µg/mL] | half-life [14] [h] | ED50 [15] [mg/kg] | Cmax [16] [ng/mL] | dose excreted at 24 h [18] [%] | logD [19] | MIC [20] [µg/mL] | MIC [22] [µg/mL] | MIC [24] [µg/mL] | also measured
C[C@H]1[C@H]2C[C@H](CN2)N1c1nc2c(cc1F)c(=O)c(C(=O)O)cn2C(C)(C)C.Cl | 1 | 12.5 | 1 | 16 | 22000 | 1.08 | 1 | 0.13 | 5.4 | 0.5 | 1330 | 0.06 | 1.22 | 22 | 9000 | 16 | -0.22 | 2 | 0.25 | 0.03 | AUC [12]: 17; MIC [17]: 8 µg/mL; MIC [21]: 1 µg/mL; AUC [23]: 22
C[C@@H]1N[C@@H]2C[C@H]1N(c1nc3c(cc1F)c(=O)c(C(=O)O)cn3C(C)(C)C)C2.Cl | 0.13 | 1.6 | 0.13 | 16 | 22000 | 2.63 | 0.25 | 0.03 | 1.6 | 0.03 | 25 | 0.03 | 1.22 | 2.7 | 9000 | 18 | 0.1 | 0.5 | 0.13 | 0.008 | ED50 [25]: 0.9 mg/kg; LD50 [26]: 263 mg/kg; ED50 [27]: 14.4 mg/kg; AUC [12]: 41; MIC [17]: 2 µg/mL; MIC [21]: 0.25 µg/mL; AUC [23]: 22; ED50 [28]: 25 mg/kg; LD50 [29]: > 2500 mg/kg
CN1C[C@H]2C[C@@H]1CN2c1nc2c(cc1F)c(=O)c(C(=O)O)cn2C(C)(C)C | 0.5 (≈ 1.34 µM) | 4.7 | 1 (≈ 2.67 µM) | 15 | 14000 | 1.33 | – | 0.13 (≈ 0.347 µM) | – | 0.13 (≈ 0.347 µM) | 310 (≈ 828 µM) | 0.13 (≈ 0.347 µM) | 1.6 | 10.2 | 13000 | 3 | 0.21 | 2 (≈ 5.34 µM) | 0.25 (≈ 0.668 µM) | 0.25 (≈ 0.668 µM) | LD50 [26]: 188 mg/kg; AUC [12]: 18; ED50 [30]: 1 mg/kg; ED50 [31]: 2.4 mg/kg; AUC [23]: 14; LD50 [29]: 1000 mg/kg
Cc1c(F)c(N2C[C@H]3C[C@@H]2[C@H](C)N3)nc2c1c(=O)c(C(=O)O)cn2C1CC1.Cl | 0.06 | 0.78 | 0.06 | 16 | 12000 | 4.2 | 0.13 | 0.016 | 1.8 | 0.016 | 6 | 0.016 | 4.8 | 0.34 | 6000 | 18 | 0.71 | 0.13 | 0.13 | 0.004 | ED50 [25]: 0.34 mg/kg; ED50 [27]: 18.9 mg/kg; AUC [12]: 41; ED50 [30]: 0.1 mg/kg; MIC [17]: 2 µg/mL; MIC [21]: 0.06 µg/mL; AUC [23]: 59; ED50 [28]: 18.9 mg/kg
C[C@H]1N[C@@H]2C[C@H]1N(c1nc3c(cc1F)c(=O)c(C(=O)O)cn3C(C)(C)C)C2.Cl | 1 | 12.5 | 0.5 | 18 | 23000 | 0.733 | 1 | 0.06 | 16.5 | 0.5 | 6340 | 0.06 | 0.75 | 9.5 | 11000 | 17 | -0.12 | 2 | 0.25 | 0.03 | AUC [12]: 8; MIC [17]: 4 µg/mL; MIC [21]: 0.5 µg/mL; AUC [23]: 18
CC(C)(C)n1cc(C(=O)O)c(=O)c2cc(F)c(N3C[C@H]4C[C@@H]3CN4)nc21 | 0.03 (≈ 0.0832 µM) | 1.4 | 0.06 (≈ 0.166 µM) | 30 | 20000 | 1.6 | 0.13 (≈ 0.361 µM) | 0.016 (≈ 0.0444 µM) | 1.6 | 0.016 (≈ 0.0444 µM) | 80 (≈ 222 µM) | 0.03 (≈ 0.0832 µM) | 1.22 | 4.7 | 10000 | 34 | -0.41 | 0.25 (≈ 0.694 µM) | 0.06 (≈ 0.166 µM) | 0.008 (≈ 0.0222 µM) | ED50 [25]: 0.9 mg/kg; LD50 [26]: 303 mg/kg; ED50 [27]: 18.9 mg/kg; ED50 [30]: 0.5 mg/kg; MIC [17]: 0.5 µg/mL (≈ 1.39 µM); MIC [21]: 0.13 µg/mL (≈ 0.361 µM); ED50 [28]: 28 mg/kg; LD50 [29]: 5000 mg/kg
C[C@@H]1[C@H]2C[C@H](CN2)N1c1nc2c(cc1F)c(=O)c(C(=O)O)cn2C(C)(C)C.Cl | 0.5 | 12.5 | 0.5 | 2 | 13000 | 0.8 | 0.5 | 0.06 | 13.1 | 0.25 | 11800 | 0.03 | 0.733 | 22 | 5000 | 1 | 0.17 | 1 | 0.25 | 0.016 | ED50 [25]: 7.5 mg/kg; AUC [12]: 5; ED50 [30]: 2.4 mg/kg; MIC [17]: 1 µg/mL; ED50 [31]: 12.5 mg/kg; MIC [21]: 0.13 µg/mL; AUC [23]: 10
